Test results as given in PubChem BioAssay (NCI).
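Interpolation was linear, between the two tested concentrations surrounding the appropriate level; five concentrations were tested over 48 hours in 96-well plates. TGI denotes the concentration required for complete inhibition of growth.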

Assays:
Assay in all cases: DTP human tumour cell line panel, 48 h
ACHN renal = tested on: ACHN renal
CAKI-1 renal = tested on: CAKI-1 renal
DU-145 prostate = tested on: DU-145 prostate
EKVX NSCLC = tested on: EKVX NSCLC
HCC-2998 colon = tested on: HCC-2998 colon
HCT-15 colon = tested on: HCT-15 colon
HT29 colon = tested on: HT29 colon
K-562 leukemia = tested on: K-562 leukemia
LOX IMVI melanoma = tested on: LOX IMVI melanoma
MALME-3M melanoma = tested on: MALME-3M melanoma
MDA-MB-231 breast = tested on: MDA-MB-231 breast
NCI/ADR-RES ovarian = tested on: NCI/ADR-RES ovarian
RPMI-8226 leukemia = tested on: RPMI-8226 leukemia
SF-268 CNS = tested on: SF-268 CNS
SF-295 CNS = tested on: SF-295 CNS
SF-539 CNS = tested on: SF-539 CNS
SK-MEL-5 melanoma = tested on: SK-MEL-5 melanoma
SNB-75 CNS = tested on: SNB-75 CNS
T-47D breast = tested on: T-47D breast
U251 CNS = tested on: U251 CNS

Structure (SMILES) | TGI (ACHN renal) [µM] | TGI (CAKI-1 renal) [µM] | TGI (DU-145 prostate) [µM] | TGI (EKVX NSCLC) [µM] | TGI (HCC-2998 colon) [µM] | TGI (HCT-15 colon) [µM] | TGI (HT29 colon) [µM] | TGI (K-562 leukemia) [µM] | TGI (LOX IMVI melanoma) [µM] | TGI (MALME-3M melanoma) [µM] | TGI (MDA-MB-231 breast) [µM] | TGI (NCI/ADR-RES ovarian) [µM] | TGI (RPMI-8226 leukemia) [µM] | TGI (SF-268 CNS) [µM] | TGI (SF-295 CNS) [µM] | TGI (SF-539 CNS) [µM] | TGI (SK-MEL-5 melanoma) [µM] | TGI (SNB-75 CNS) [µM] | TGI (T-47D breast) [µM] | TGI (U251 CNS) [µM]
COC(=O)[C@@H]1C=C[C@H](OC2OC(COC(C)=O)C(OC(C)=O)C(OC(C)=O)C2OC(C)=O)n2c(=O)n(-c3ccccc3)c(=O)n21 (stereo not given in full) | 3.17 | 2.7 | 15.7 | 11.2 | 21.9 | 3.85 | 3.64 | 4.02 | 3.09 | 4.07 | 8.42 | 31.4 | 6.05 | 8.17 | 15.5 | 8.21 | 7 | 13 | 8.75 | 8.33
COC(=O)c1csc([C@@H](OC(=O)[C@H](C)[C@H](CCCC(C)(Cl)Cl)OC(=O)c2csc([C@H](O)CO)n2)C(C)C)n1 | 25.8 | 32.7 | 24.8 | 33.4 | 22.2 | 31 | 36.8 | 33.6 | 23.5 | 34.3 | 36.1 | 45.4 | 34.1 | 34.8 | 29.1 | 8.62 | 31.8 | 11 | 36.5 | 32
O=C1OC(CCCN2CCCCC2)(c2ccccc2)CC12CCCC2 (stereo not given) | > 100 | > 100 | > 100 | > 100 | > 100 | > 100 | > 92 | > 96.3 | > 100 | 55.7 | > 100 | > 100 | > 100 | > 100 | > 100 | > 92.1 | 33.8 | > 100 | > 100 | > 100
COc1cc2c(cc1OCCCCCCCCCCN1C(=O)c3cccc4cccc(c34)C1=O)N=C[C@@H]1CCCN1C2=O | 30 | 28.9 | 34.4 | 14.4 | 27.5 | 16.9 | 29.3 | 74.7 | 4.99 | 34 | 20.4 | 14.4 | 4 | 37.3 | 27.4 | 3.21 | 22.8 | 21.3 | > 100 | 13.4
